Results on twelve compounds are retold here after article PMC5780498, “Discovery of novel bacterial topoisomerase I inhibitors by use of in silico docking and in vitro assays” (Scientific Reports, 2018).

Assay [1] addresses T1, M. tuberculosis topoisomerase I (MtbTopI) (Mycobacterium tuberculosis, UniProt P9WG49).
T1 construct: made in house
The assay can be described thus: MtbTopI relaxation inhibition assay. It is filed as biochemical. Particulars: 12.5 nM enzyme, supercoiled pBAD/Thio plasmid, 37 °C 30 min, agarose gel.

Assay [2] deals with T2, human topoisomerase I (hTOPI) (Homo sapiens, UniProt P11387).
T2 construct: purchased TopoGen
T2 sequence (P11387 1-765): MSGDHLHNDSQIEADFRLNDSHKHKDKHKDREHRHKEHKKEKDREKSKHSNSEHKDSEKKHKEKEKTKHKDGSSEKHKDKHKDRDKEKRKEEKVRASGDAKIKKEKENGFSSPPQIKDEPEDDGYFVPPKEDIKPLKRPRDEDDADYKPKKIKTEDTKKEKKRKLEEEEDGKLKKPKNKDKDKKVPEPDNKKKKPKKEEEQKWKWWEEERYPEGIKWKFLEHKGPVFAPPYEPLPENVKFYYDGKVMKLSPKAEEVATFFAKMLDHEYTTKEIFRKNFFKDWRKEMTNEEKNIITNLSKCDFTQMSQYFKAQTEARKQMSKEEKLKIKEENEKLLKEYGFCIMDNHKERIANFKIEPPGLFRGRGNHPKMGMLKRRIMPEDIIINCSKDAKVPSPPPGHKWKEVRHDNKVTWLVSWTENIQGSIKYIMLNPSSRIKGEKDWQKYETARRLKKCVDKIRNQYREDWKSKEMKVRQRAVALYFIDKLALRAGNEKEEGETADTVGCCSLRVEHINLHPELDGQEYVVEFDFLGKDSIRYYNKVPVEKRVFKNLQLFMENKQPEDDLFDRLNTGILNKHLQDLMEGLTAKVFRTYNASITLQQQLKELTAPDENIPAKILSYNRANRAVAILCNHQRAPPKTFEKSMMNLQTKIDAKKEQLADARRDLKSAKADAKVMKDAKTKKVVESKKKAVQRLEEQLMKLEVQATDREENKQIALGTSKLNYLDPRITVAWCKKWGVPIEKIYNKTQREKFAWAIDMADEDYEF
The assay can be described thus: Human topoisomerase I relaxation inhibition assay. The assay is classed as biochemical. Particulars: for IC50: 0.5 U enzyme, supercoiled plasmid, 37 °C 30 min; for Selectivity Score: hTOPI IC50/MtbTopI IC50. On the procedure: Human topoisomerase I assays were carried out in a buffer containing 10 mM Tris-HCl, pH 8.0, 150 mM NaCl, 0.1% BSA, 0.1 mM spermidine, and 5% glycerol. The enzyme (from TopoGen) was diluted in the above buffer and aliquoted into 10 µL samples such that 0.5U was present in each. 0.5 µL of compound at various concentrations was added before the addition of 150 ng of purified pBAD/Thio purified plasmid DNA for a final volume of 20 µL. The samples were incubated for 30 minutes at 37 °C before stopping by the addition of 4 µL of buffer containing 5% SDS, 0.25% bromophenol blue, and 25% glycerol. The samples were analyzed by gel electrophoresis as previously described[23],[38],[39]. The experiments were replicated twice.

Assay [3] concerns the target T3, E. coli DNA gyrase (Escherichia coli, UniProt P0AES4+P0AES6).
T3 construct: purchased New England BioLabs
The assay can be described thus: DNA gyrase supercoiling inhibition assay. Particulars: for IC50: 2 U enzyme, relaxed plasmid, 37 °C 30 min. It is filed as biochemical. As for the experimental part:
E. coli DNA gyrase was obtained from New England BioLabs. Two units of the enzyme were added to a reaction buffer provided by the manufacturer (35 mM Tris-HCl, pH 8.0, 4 mM MgCl2, 24 mM KCl, 2 mM DTT, 1.75 mM ATP, 5 mM spermidine, 0.1 mg/mL BSA, and 6.5% glycerol). 0.5 µL of the compounds dissolved in DMSO or the solvent alone were added to the enzyme mixture. 300 ng of relaxed covalently closed plasmid DNA was then added for a final volume of 20 µL. The reactions were incubated for 30 minutes at 37 °C before termination by the addition of 4 µL of the SDS stop buffer. The samples were then loaded into a 1% agarose gel and run at 25 V overnight. The experiments were replicated twice.

For assay [4], the system named is M. smegmatis transformed with cloning vector (MnoI strain). In words: microbe, parasite or virus in culture. It is filed as cell-based, Mycobacterium smegmatis. The settings on record: Mycolicibacterium smegmatis.
Assay [5] deals with E. coli topoisomerase I (Escherichia coli, UniProt P06612). In words: E. coli topoisomerase I relaxation inhibition assay. The assay is classed as biochemical. The settings on record: for Inhibition of E. coli topoisomerase I relaxation activity (in words): Supplementary Fig. S2.
Chain of E. coli topoisomerase I (P06612 whole entry): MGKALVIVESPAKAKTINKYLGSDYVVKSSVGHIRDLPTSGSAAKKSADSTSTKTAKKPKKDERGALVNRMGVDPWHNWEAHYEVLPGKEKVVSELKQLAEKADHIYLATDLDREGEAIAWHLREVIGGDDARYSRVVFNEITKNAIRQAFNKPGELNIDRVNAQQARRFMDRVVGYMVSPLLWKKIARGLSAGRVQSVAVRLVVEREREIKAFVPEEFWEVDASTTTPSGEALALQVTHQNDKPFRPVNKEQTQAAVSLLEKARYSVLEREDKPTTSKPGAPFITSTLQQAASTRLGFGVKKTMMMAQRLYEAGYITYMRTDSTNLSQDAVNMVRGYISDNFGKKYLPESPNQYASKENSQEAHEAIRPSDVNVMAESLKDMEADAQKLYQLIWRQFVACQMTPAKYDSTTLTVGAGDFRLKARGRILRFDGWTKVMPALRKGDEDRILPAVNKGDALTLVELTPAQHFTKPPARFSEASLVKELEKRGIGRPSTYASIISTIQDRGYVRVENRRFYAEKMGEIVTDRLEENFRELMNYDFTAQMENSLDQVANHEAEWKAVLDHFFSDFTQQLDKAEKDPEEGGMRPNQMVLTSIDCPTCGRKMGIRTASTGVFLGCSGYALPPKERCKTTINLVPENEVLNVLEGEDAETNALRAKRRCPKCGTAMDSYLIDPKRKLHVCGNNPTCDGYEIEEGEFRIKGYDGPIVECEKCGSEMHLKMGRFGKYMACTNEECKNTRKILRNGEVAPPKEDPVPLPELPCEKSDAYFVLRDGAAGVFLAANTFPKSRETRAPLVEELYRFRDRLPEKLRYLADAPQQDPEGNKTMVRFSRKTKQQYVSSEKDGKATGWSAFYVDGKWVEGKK
Assay [6] has as its target T4, human topoisomerase I (Homo sapiens, UniProt P11387).
T4 construct: purchased TopoGen
T4 sequence (P11387 1-765): T2 sequence (P11387 1-765)
In words: Gel electrophoresis with ethidium bromide of human topoisomerase I reaction products (nicked DNA). Particulars: gel electrophoresis in the presence of ethidium bromide. It is filed as biochemical.

Setting [7] is: 48 h, read-out: MnoI Growth Inhibition (MIC).
The mark [8] stands for this setting: read-out: MnoI Growth Inhibition with TZ (MIC).

In brackets after ≈: the same amount, converted by molar mass. Entries after “also recorded” stand apart in the source; their conditions may differ. Where two headings read alike, the source gives them in different places.

T1 sequence (P9WG49 whole entry): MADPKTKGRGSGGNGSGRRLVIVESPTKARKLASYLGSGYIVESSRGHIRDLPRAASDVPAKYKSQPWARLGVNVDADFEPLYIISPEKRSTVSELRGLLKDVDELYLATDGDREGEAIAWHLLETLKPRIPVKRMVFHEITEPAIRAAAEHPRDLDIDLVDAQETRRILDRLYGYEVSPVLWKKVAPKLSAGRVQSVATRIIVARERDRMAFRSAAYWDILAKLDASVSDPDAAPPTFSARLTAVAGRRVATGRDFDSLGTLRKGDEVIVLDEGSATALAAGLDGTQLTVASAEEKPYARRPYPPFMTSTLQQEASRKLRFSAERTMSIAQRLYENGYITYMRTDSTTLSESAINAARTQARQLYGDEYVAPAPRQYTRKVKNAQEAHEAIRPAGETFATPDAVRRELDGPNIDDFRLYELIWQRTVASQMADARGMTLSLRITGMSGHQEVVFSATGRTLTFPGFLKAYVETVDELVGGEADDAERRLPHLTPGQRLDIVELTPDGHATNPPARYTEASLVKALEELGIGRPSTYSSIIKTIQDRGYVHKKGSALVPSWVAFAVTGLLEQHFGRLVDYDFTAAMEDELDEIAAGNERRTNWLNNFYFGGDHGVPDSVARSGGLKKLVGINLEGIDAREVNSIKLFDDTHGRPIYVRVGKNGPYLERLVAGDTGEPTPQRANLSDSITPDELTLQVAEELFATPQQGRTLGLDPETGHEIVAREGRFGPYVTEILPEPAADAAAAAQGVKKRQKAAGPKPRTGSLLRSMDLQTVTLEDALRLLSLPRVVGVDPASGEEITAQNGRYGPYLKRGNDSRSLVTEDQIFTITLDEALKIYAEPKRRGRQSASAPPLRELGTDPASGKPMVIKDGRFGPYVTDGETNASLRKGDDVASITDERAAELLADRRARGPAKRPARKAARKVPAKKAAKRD
T3 sequence (P0AES4 whole entry, one chain of several): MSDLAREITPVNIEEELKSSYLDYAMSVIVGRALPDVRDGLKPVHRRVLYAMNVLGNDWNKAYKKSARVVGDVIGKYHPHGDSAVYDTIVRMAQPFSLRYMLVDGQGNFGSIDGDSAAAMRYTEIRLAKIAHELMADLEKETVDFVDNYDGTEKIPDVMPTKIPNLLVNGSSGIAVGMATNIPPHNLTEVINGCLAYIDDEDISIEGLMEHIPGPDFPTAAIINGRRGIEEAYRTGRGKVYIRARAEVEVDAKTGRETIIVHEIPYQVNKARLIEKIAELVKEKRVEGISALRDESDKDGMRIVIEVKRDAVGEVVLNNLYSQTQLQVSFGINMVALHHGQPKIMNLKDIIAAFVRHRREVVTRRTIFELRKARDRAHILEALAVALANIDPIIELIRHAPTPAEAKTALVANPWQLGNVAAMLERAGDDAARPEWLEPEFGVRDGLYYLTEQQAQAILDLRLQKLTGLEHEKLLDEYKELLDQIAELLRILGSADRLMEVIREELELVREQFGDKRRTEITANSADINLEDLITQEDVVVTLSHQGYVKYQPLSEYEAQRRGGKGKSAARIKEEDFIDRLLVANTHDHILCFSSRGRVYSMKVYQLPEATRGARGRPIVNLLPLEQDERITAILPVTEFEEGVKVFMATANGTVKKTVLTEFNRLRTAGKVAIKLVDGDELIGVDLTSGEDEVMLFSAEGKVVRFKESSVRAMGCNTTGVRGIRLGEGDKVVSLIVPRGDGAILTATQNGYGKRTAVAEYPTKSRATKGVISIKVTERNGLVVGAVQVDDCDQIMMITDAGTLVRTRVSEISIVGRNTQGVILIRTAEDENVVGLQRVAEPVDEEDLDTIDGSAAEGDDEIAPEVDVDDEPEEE

`Cc1ccc2c(C)c(C(=O)N3CCC4(CC(=O)c5ccccc5O4)C3)oc2c1` (centres unmarked) [Compound 12]: the values for the IC50 in assay [1], in assay [2] and in assay [3] were 62.5 µM, greater than 500 µM and greater than 500 µM, respectively. For the same compound, the figures for the MIC in assay [4] (setting [7]) and in assay [4] (setting [8]) were greater than 500 µM and 500 µM (≈ 188 µg/mL), respectively.

As for `O=C(CN1C(=O)C2C3CCC(C3)C2C1=O)N1CCC2(CC1)Nc1ccccc1-n1cccc12` (centres unmarked) [Compound 6], it took 500 µM to reach half-maximal inhibition in assay [1] (IC50).

For `Cc1c(C(=O)N2CCC(c3nnc(-c4nccc5ccccc45)o3)CC2)oc2ccccc12` [Compound 2], the IC50 in assay [1] is 62.5 µM; in assay [2], greater than 250 µM. Moreover, the “Selectivity Score” value in assay [2] was greater than 4. Further, the figures for the MIC in assay [4] (setting [7]) and in assay [4] (setting [8]) were 188 µM (≈ 82.2 µg/mL) and 31.3 µM (≈ 13.7 µg/mL), respectively.

As for `Cc1cc2oc(C(=O)N3CCC(c4nc5ccccc5[nH]4)CC3)c(C)c2cc1C` [Compound 8], the IC50 in assay [1] is 62.5 µM; in assay [2], greater than 500 µM; in assay [3], greater than 500 µM. Moreover, in assay [5], the “Inhibition of E. coli topoisomerase I relaxation activity (in words)” value was “inhibited”. Also, the MIC was greater than 500 µM in assay [4] (setting [7]) and 23.4 µM (≈ 9.07 µg/mL) in assay [4] (setting [8]).

As to `CC[C@@]1(O)C(=O)OCc2c1cc1n(c2=O)Cc2cc3ccccc3nc2-1` [camptothecin], in assay [6], the “Formation of nicked DNA by human topoisomerase I” value is reported as “increased nicking of DNA by human topoisomerase I significantly”.

In the case of `Cc1ccc2oc(C(=O)N3CCC(O)(c4cccc(C(F)(F)F)c4)CC3)c(C)c2c1` [Compound 10], the 50% inhibitory concentration (IC50) in assay [1] was 62.5 µM; in assay [2], greater than 500 µM; in assay [3], greater than 500 µM. Moreover, the MIC in assay [4] (setting [7]) was 125 µM (≈ 52.2 µg/mL); in assay [4] (setting [8]) it was 23.4 µM (≈ 9.77 µg/mL).

On to `Cc1c(C(=O)N2CCCCC2CCc2ccc(O)cc2)oc2c(F)cccc12` (centres unmarked) [Compound 11], for which the IC50 was 62.5 µM in assay [1], 250 µM in assay [2] and greater than 500 µM in assay [3]. Besides, the MIC stood at 500 µM (≈ 191 µg/mL) in assay [4] (setting [7]) and 46.9 µM (≈ 17.9 µg/mL) in assay [4] (setting [8]).

Regarding `COc1ccc2c(c1)NC1(CCN(C(=O)Cc3c[nH]c4ccccc34)CC1)NS2(=O)=O` [Compound 3], the IC50 was 62.5 µM in assay [1] and greater than 250 µM in assay [2]. Further, the “Selectivity Score” value in assay [2] is recorded as greater than 4. For the same compound, the values for the MIC in assay [4] (setting [7]) and in assay [4] (setting [8]) were 250 µM (≈ 110 µg/mL) and 31.3 µM (≈ 13.8 µg/mL), respectively.

As for `Cc1ccc2[nH]c(C3CCN(C(=O)c4oc5ccc(C)cc5c4C)CC3)nc2c1` [Compound 9], the IC50 in assay [1] was 62.5 µM; in assay [2], greater than 500 µM; in assay [3], greater than 500 µM. The “Inhibition of E. coli topoisomerase I relaxation activity (in words)” value in assay [5] was “inhibited”. Moreover, the MIC in assay [4] (setting [7]) was found to be 125 µM (≈ 48.4 µg/mL); in assay [4] (setting [8]), 23.4 µM (≈ 9.07 µg/mL).

With `O=C(c1ccc2c(c1)OCO2)N1CCC(Cn2nc(-c3ccc(F)cc3)ccc2=O)CC1` [Compound 5], the IC50 in assay [1] was 250 µM.

As for `Cc1ccc(CN2C[C@]34C=C[C@H](O3)C(C(=O)N3CCn5cccc5C3)C4C2=O)cc1C` (some centres unmarked) [Compound 7], the figures for the IC50 in assay [1], in assay [2] and in assay [5] (assay conditions as for MtbTopI) were 2 µM, greater than 500 µM and 15.6 to 31.3 µM, respectively. For the same compound, in assay [3] (up to 500 µM), the “Inhibition of E. coli DNA gyrase supercoiling activity (in words)” value is “no inhibition; also recorded: does not inhibit”. Further, in assay [5], the “Inhibition of E. coli topoisomerase I relaxation activity (in words)” value was “inhibited”. Moreover, the results for the MIC in assay [4] (setting [7]) and in assay [4] (setting [8]) were greater than 500 µM and 500 µM (≈ 209 µg/mL), respectively.

For the compound `Cc1c(C(=O)N2CCC3(CC2)CC(O)(c2ccc(F)cc2)CO3)oc2ccccc12` (centres unmarked) [Compound 4], the values for the half-maximal inhibitory concentration (IC50) in assay [1] and in assay [2] were 125 µM and greater than 250 µM, respectively. Also, the “Selectivity Score” value in assay [2] is greater than 2.

As usually defined, the IC50 is the midpoint of a concentration-inhibition curve. Lower therefore signals greater potency.
